≈ marks a conversion by molar mass, not a printed value.

The source of these data is ChEMBL document CHEMBL5107972 (RSC Med Chem, 2022).

What all share (type): functional
For test [1], the system named is Mycobacterium tuberculosis. Description: Antitubercular activity against clinical isolate rifampicin-resistant Mycobacterium tuberculosis ATCC 35838 assessed as inhibition of bacterial growth incubated for 7 days by Presto blue resazurin microtiter plate assay. The note with it: ATCC 35838, 168 h, time 7 day. On the technique in general: Alamar Blue is a resazurin reagent that responds to reducing activity.

Test [2] has as its system Mycobacterium tuberculosis. Description: Antitubercular activity against clinical isolate isoniazid-resistant Mycobacterium tuberculosis ATCC 35822 assessed as inhibition of bacterial growth incubated for 7 days by Presto blue resazurin microtiter plate assay. The note with it: ATCC 35822, 168 h, time 7 day.
Test [3] deals with Mycobacterium tuberculosis. The test is described as follows: Antitubercular activity against clinical isolate ethambutol-resistant Mycobacterium tuberculosis ATCC 35837 assessed as inhibition of bacterial growth incubated for 7 days by Presto blue resazurin microtiter plate assay. To be noted: ATCC 35837, 168 h, time 7 day.
In test [4] the test system is Mycobacterium tuberculosis. Description: Antitubercular activity against clinical isolate streptomycin-resistant Mycobacterium tuberculosis ATCC 35820 assessed as inhibition of bacterial growth incubated for 7 days by Presto blue resazurin microtiter plate assay. The note with it: ATCC 35820, 168 h, time 7 day.

The MIC is the smallest concentration in the dilution series that meets the test's criterion for growth inhibition. As to `CC[C@@H](CO)NCCN[C@@H](CC)CO` [ETHAMBUTOL], the MIC in test [1] came out at 2 mg/L (≈ 9.79 µM); in test [2] it was 4 mg/L (≈ 19.6 µM); in test [3] it was 32 mg/L (≈ 157 µM); in test [4], 2 mg/L (≈ 9.79 µM).

For `CN[C@@H]1[C@H](O[C@H]2[C@H](O[C@H]3[C@H](O)[C@@H](O)[C@H](N=C(N)N)[C@@H](O)[C@@H]3N=C(N)N)O[C@@H](C)[C@]2(O)C=O)O[C@@H](CO)[C@H](O)[C@H]1O` [STREPTOMYCIN], the MIC is 1 mg/L (≈ 1.72 µM) in test [1], 1 mg/L (≈ 1.72 µM) in test [2], 1 mg/L (≈ 1.72 µM) in test [3] and above 64 mg/L in test [4].

For the compound `NNC(=O)c1ccncc1` [ISONIAZID], the MIC in test [1] was 0.03 mg/L (≈ 0.219 µM); in test [2] it was above 64 mg/L; in test [3], 0.03 mg/L (≈ 0.219 µM); in test [4], 0.03 mg/L (≈ 0.219 µM).

`CO[C@H]1/C=C/O[C@@]2(C)Oc3c(C)c(O)c4c(O)c(c(/C=N/N5CCN(C)CC5)c(O)c4c3C2=O)NC(=O)/C(C)=C\C=C\[C@H](C)[C@H](O)[C@@H](C)[C@@H](O)[C@@H](C)[C@H](OC(C)=O)[C@@H]1C` [RIFAMPIN]: the MIC in test [1] was 64 mg/L (≈ 77.8 µM); in test [2] it was 0.03 mg/L (≈ 0.0365 µM); in test [3], 0.03 mg/L (≈ 0.0365 µM); in test [4] it was 0.03 mg/L (≈ 0.0365 µM).
